In patent publication US8916702B2 (priority 2012, dated 2014):
Where two headings read alike, the source gives them in different places.

Tested on: HCV pseudoparticles (genotype 1a HCV E1 and E2 envelope, H77C isolate)
Assay: microbe, parasite or virus in culture
Format: cell-based
Settings: Hepatitis C virus
[1] = Huh-7, 48 h, read-out: Activity (EC50 class), HCV pseudoparticle infection of Huh7 cells, luciferase 2 days after infection, EC50 expressed as class A/B
[2] = Huh-7, 48 h, HCV pseudoparticle infection of Huh7 cells, luciferase 2 days after infection, average of duplicates
[3] = Huh-7, 48 h, HCV pseudoparticles (genotype 1a, H77C) in Huh7 cells, average of duplicate, luciferase 2 days after infection
[4] = Huh-7, read-out: Activity (EC50 class), HCV pseudoparticles (genotype 1a, H77C) in Huh7 cells, EC50 expressed as class A/B
[5] = Huh-7, 48 h, read-out: Activity (EC50 class), HCV pseudoparticles, Huh7 cells, luciferase 2 days after infection, average of duplicates

| Structure (SMILES) | EC50 [1] | EC50 [4] | other results |
| --- | --- | --- | --- |
| O=C(NCCc1ccccn1)C(=O)NC[C@H](NC(=O)c1ccc(Nc2nc(NC3(c4ccc(Cl)cc4)CC3)nc(OCC(F)(F)F)n2)cc1)C(=O)O [Compound 1394] | 0.01 to 10 nM | – | – |
| COC(=O)[C@H](CCNC(=O)C(=O)Nn1cnnc1)NC(=O)c1ccc(Nc2nc(NC3(c4ccc(Cl)cc4)CC3)nc(OCC(F)(F)F)n2)cc1 [Compound 1219] | 10 to 1000 nM | – | – |
| COC(=O)[C@H](CCNC(=O)C(=O)NC1Cc2ccccc2C1)NC(=O)c1ccc(Nc2nc(NC3(c4ccc(Cl)cc4)CC3)nc(OCC(F)(F)F)n2)cc1 [Compound 1314] | 0.01 to 10 nM | – | EC50 [2]: 0.43 nM |
| COC(=O)[C@@H](CCNC(=O)C(=O)Nc1cccc(OC(F)(F)F)c1)NC(=O)c1ccc(Nc2nc(NC3(c4ccc(Cl)cc4)CC3)nc(OCC(F)(F)F)n2)cc1 [Compound 3577] | – | 0.01 to 10 nM | EC50 [3]: 0.16 nM |
| CC(C)(CNC(=O)C(N)=O)CNC(=O)c1ccc(Nc2nc(NC3(c4ccc(Cl)cc4)CC3)nc(OCC(F)(F)F)n2)c(F)c1 [Compound 3386] | – | 0.01 to 10 nM | – |
| CC(C)(CNC(=O)C(=O)Nc1ccc(Cl)cc1C#N)CNC(=O)c1ccc(Nc2nc(NC3(c4ccc(Cl)cc4)CC3)nc(OCC(F)(F)F)n2)cc1 [Compound 3384] | – | 0.01 to 10 nM | – |
| COC(=O)[C@H](CCNC(=O)C(=O)Nc1ccc(-c2ccccc2C)cc1)NC(=O)c1ccc(Nc2nc(NC3(c4ccc(Cl)cc4)CC3)nc(OCC(F)(F)F)n2)cc1 [Compound 3304] | – | 0.01 to 10 nM | – |
| COC(=O)[C@H](CCNC(=O)C(=O)Nc1ccc(OC)nc1)NC(=O)c1ccc(Nc2nc(NC3(c4ccc(Cl)cc4)CC3)nc(OCC(F)(F)F)n2)cc1 [Compound 1218] | 0.01 to 10 nM | – | – |
| N#Cc1ccc(NC(=O)C(=O)NC/C(=N/C(=O)c2ccc(Nc3nc(NC4(c5ccc(Cl)cc5)CC4)nc(OCC(F)(F)F)n3)cc2)C(=O)O)cc1 [Compound 3167] | – | 0.01 to 10 nM | – |
| Cc1ccc(NC(=O)C(=O)NCC(C)(C)CNC(=O)c2ccc(Nc3nc(NC4(c5ccc(Cl)cc5)CC4)nc(OCC(F)(F)F)n3)cc2-n2nnnc2C)cc1 [Compound 3518] | – | 0.01 to 10 nM | EC50 [3]: 0.097 nM |
| O=C(NC[C@H](NC(=O)c1ccc(Nc2nc(NC3(c4ccc(Cl)cc4)CC3)nc(OCC(F)(F)F)n2)cc1)C(=O)O)C(=O)Nc1ccc(Oc2cccnc2)nc1 [Compound 3755] | – | – | EC50 [5]: 0.01 to 10 nM |
| CC(C)(CNC(=O)C(=O)Nc1cccc2c1-c1ccccc1C2=O)CNC(=O)c1ccc(Nc2nc(NC3(c4ccc(Cl)cc4)CC3)nc(OCC(F)(F)F)n2)cc1 [Compound 3344] | – | 0.01 to 10 nM | – |
| COC(=O)C(CNC(=O)C(=O)NC1CCC(O)CC1)NC(=O)c1ccc(Nc2nc(NC3(c4ccc(Cl)cc4)CC3)nc(OCC(F)(F)F)n2)cc1 (stereo not drawn) [Compound 1048] | 0.01 to 10 nM | – | – |
| COC(=O)[C@H](CNC(=O)C(=O)Nc1cccnc1OC)NC(=O)c1ccc(Nc2nc(NC3(c4ccc(Cl)cc4)CC3)nc(OCC(F)(F)F)n2)cc1 [Compound 1240] | 0.01 to 10 nM | – | – |
| COc1ccc(NC(=O)C(=O)NCC(C)(C)CNC(=O)c2ccc(Nc3nc(NC4(c5ccc(Cl)cc5)CC4)nc(OCC(F)(F)F)n3)cc2)cc1 [Compound 3007] | – | 0.01 to 10 nM | – |
| COC(=O)[C@H](CNC(=O)C(=O)Nc1ccc(CN2CCCCC2)cc1)NC(=O)c1ccc(Nc2nc(NC3(c4ccc(Cl)cc4)CC3)nc(OCC(F)(F)F)n2)cc1 [Compound 3196] | – | 0.01 to 10 nM | – |
| CN(C)C(=O)C(=O)NCC[C@H](NC(=O)c1ccc(Nc2nc(NC3(c4ccc(Cl)cc4)CC3)nc(OCC(F)(F)F)n2)cc1)C(=O)O [Compound 1015, (S)-2-(4-(4-(1-(4-chlorophenyl)cyclopropylamino)-6-(2,2,2-trifluoroethoxy)-1,3,5-triazin-2-ylamino)benzamido)-4-(2-(dimethylamino)-2-oxoacetamido)butanoic acid] | 0.01 to 10 nM | – | – |
| CC(C)(CNC(=O)C(=O)Nc1nc2ccc(S(N)(=O)=O)cc2s1)CNC(=O)c1ccc(Nc2nc(NC3(c4ccc(Cl)cc4)CC3)nc(OCC(F)(F)F)n2)cc1F [Compound 3678] | – | – | EC50 [5]: 0.01 to 10 nM |
| COC(=O)[C@H](CCNC(=O)C(=O)Nc1cccc(CCC(N)O)c1)NC(=O)c1ccc(Nc2nc(NC3(c4ccc(Cl)cc4)CC3)nc(OCC(F)(F)F)n2)cc1 (stereo partly drawn) [Compound 3609] | – | – | EC50 [5]: 0.01 to 10 nM |
| COC(=O)[C@H](CNC(=O)C(=O)Nc1ccc(-c2nc(OC)cc(OC)n2)cc1)NC(=O)c1ccc(Nc2nc(NC3(c4ccc(Cl)cc4)CC3)nc(OCC(F)(F)F)n2)cc1 [Compound 3185] | – | 0.01 to 10 nM | – |
| O=C(NC[C@H](NC(=O)c1ccc(Nc2nc(NC3(c4ccc(Cl)cc4)CC3)nc(OCC(F)(F)F)n2)cc1)C(=O)O)C(=O)Nc1ccc(-n2ccnc2)cc1 [Compound 3268] | – | 0.01 to 10 nM | – |
| CN(CCCNC(=O)c1ccc(Nc2nc(NC3(c4ccc(Cl)cc4)CC3)nc(OCC(F)(F)F)n2)cc1)C(=O)C(=O)Nc1ccccc1 [Compound 3450] | – | 0.01 to 10 nM | – |
| COC(=O)[C@H](CNC(=O)C(=O)Nc1cccc(-c2nnnn2C)c1)NC(=O)c1ccc(Nc2nc(NC3(c4ccc(Cl)cc4)CC3)nc(OCC(F)(F)F)n2)cc1 [Compound 3731] | – | – | EC50 [5]: 0.01 to 10 nM |

| Structure (SMILES) | EC50 [1] | EC50 [4] | other results |
| --- | --- | --- | --- |
| COC(=O)[C@H](CNC(=O)C(=O)Nc1ccc(C(=O)c2ccccc2)cc1)NC(=O)c1ccc(Nc2nc(NC3(c4ccc(Cl)cc4)CC3)nc(OCC(F)(F)F)n2)cc1 [Compound 3084] | – | 0.01 to 10 nM | EC50 [3]: 3.58 nM |
| O=C(NCC[C@H](NC(=O)c1ccc(Nc2nc(NC3(c4ccc(Cl)cc4)CC3)nc(OCC(F)(F)F)n2)cc1)C(=O)O)C(=O)NCc1cc(F)ccc1F [Compound 1189] | 0.01 to 10 nM | – | – |
| COC(=O)[C@H](CNC(=O)C(=O)Nc1ccc(Cl)cc1)NC(=O)c1ccc(Nc2nc(NC3(c4ccc(Cl)cc4)CC3)nc(OCC(F)(F)F)n2)cc1 [Compound 3081] | – | 0.01 to 10 nM | – |
| Cc1cc(NC(=O)C(=O)N(C)CCCNC(=O)c2ccc(Nc3nc(NC4(c5ccc(Cl)cc5)CC4)nc(OCC(F)(F)F)n3)cc2)no1 [Compound 3446] | – | 0.01 to 10 nM | – |
| O=C(NC[C@H](NC(=O)c1ccc(Nc2nc(NC3(c4ccc(Cl)cc4)CC3)nc(OCC(F)(F)F)n2)cc1)C(=O)O)C(=O)Nc1cccc(S(=O)(=O)N2CCCCC2)c1 [Compound 3772] | – | – | EC50 (Huh-7, 48 h, HCV pseudoparticles, Huh7 cells, luciferase 2 days after infection, average of duplicates): 7.42 nM; EC50 [5]: 0.01 to 10 nM |
| COC(=O)[C@H](CCNC(=O)C(=O)Nc1ccc(Oc2ccncc2)cc1)NC(=O)c1ccc(Nc2nc(NC3(c4ccc(Cl)cc4)CC3)nc(OCC(F)(F)F)n2)cc1 [Compound 3323] | – | 0.01 to 10 nM | – |
| COC(=O)[C@H](CNC(=O)C(=O)N[C@H]1C[C@H]1c1ccccc1)NC(=O)c1ccc(Nc2nc(NC3(c4ccc(Cl)cc4)CC3)nc(OCC(F)(F)F)n2)cc1 [Compound 1294] | 0.01 to 10 nM | – | – |
| COC(=O)[C@H](CCNC(=O)C(=O)NC1CCC(C)CC1)NC(=O)c1ccc(Nc2nc(NC3(c4ccc(Cl)cc4)CC3)nc(OCC(F)(F)F)n2)cc1 (stereo partly drawn) [Compound 1109] | 0.01 to 10 nM | – | – |
| Cn1cnnc1-c1ccc(NC(=O)C(=O)NC[C@H](NC(=O)c2ccc(Nc3nc(NC4(c5ccc(Cl)cc5)CC4)nc(OCC(F)(F)F)n3)cc2)C(=O)O)cc1 [Compound 3283] | – | 0.01 to 10 nM | – |
| CC(C)(CNC(=O)C(=O)NC1CCCCCC1)CNC(=O)c1ccc(Nc2nc(NC3(c4ccc(Cl)cc4)CC3)nc(OCC(F)(F)F)n2)cc1 [Compound 1033, N1-(3-(4-(4-(1-(4-chlorophenyl)cyclopropylamino)-6-(2,2,2-trifluoroethoxy)-1,3,5-triazin-2-ylamino)benzamido)-2,2-dimethylpropyl)-N2-cycloheptyloxalamide] | 0.01 to 10 nM | – | – |
| CC(C)c1ccc(NC(=O)C(=O)NCC(C)(C)CNC(=O)c2ccc(Nc3nc(NC4(c5ccc(Cl)cc5)CC4)nc(OCC(F)(F)F)n3)cc2)cc1 [Compound 1589] | 0.01 to 10 nM | – | – |
| COC(=O)[C@H](CCNC(=O)C(=O)Nc1cccc(C(F)(F)F)c1)NC(=O)c1ccc(Nc2nc(NC3(c4ccc(Cl)cc4)CC3)nc(OCC(F)(F)F)n2)cc1 [Compound 1229] | 0.01 to 10 nM | – | – |
| CC(CNC(=O)C(=O)Nc1ccc(F)cc1F)CNC(=O)c1ccc(Nc2nc(NC3(c4ccc(Cl)cc4)CC3)nc(OCC(F)(F)F)n2)cc1 (stereo not drawn) [Compound 3473] | – | 0.01 to 10 nM | – |
| O=C(NC[C@H](NC(=O)c1ccc(Nc2nc(NC3(c4ccc(Cl)cc4)CC3)nc(OCC(F)(F)F)n2)cc1)C(=O)Cl)C(=O)Nc1cccc(Oc2cccnc2)c1 [Compound 3792] | – | – | EC50 [5]: 0.01 to 10 nM |
| Cc1nc(-c2cccc(NC(=O)C(=O)NCC[C@H](NC(=O)c3ccc(Nc4nc(NC5(c6ccc(Cl)cc6)CC5)nc(OCC(F)(F)F)n4)cc3)C(=O)O)c2)cs1 [Compound 3642] | – | – | EC50 [5]: 0.01 to 10 nM |
| COC(=O)[C@H](CNC(=O)C(=O)Nc1ccc(OCC(F)(F)F)cc1)NC(=O)c1ccc(Nc2nc(NC3(c4ccc(Cl)cc4)CC3)nc(OCC(F)(F)F)n2)cc1 [Compound 3096] | – | 0.01 to 10 nM | – |
| NC(=O)NCc1ccc(NC(=O)C(=O)NCCC(NC(=O)c2ccc(Nc3nc(NC4(c5ccc(Cl)cc5)CC4)nc(OCC(F)(F)F)n3)cc2)C(=O)O)cc1 (stereo not drawn) [Compound 3535] | – | 0.01 to 10 nM | – |
| O=C(NCC[C@H](NC(=O)c1ccc(Nc2nc(NC3(c4ccc(Cl)cc4)CC3)nc(OCC(F)(F)F)n2)cc1)C(=O)O)C(=O)N[C@H]1C[C@H]1c1ccccc1 [Compound 1338] | 0.01 to 10 nM | – | – |
| Cc1ccc(NC(=O)C(=O)NCC(C)(C)CNC(=O)c2ccc(Nc3nc(NC4(c5ccc(Cl)cc5)CC4)nc(OCC(F)(F)F)n3)cc2)c(C#N)c1 [Compound 3454] | – | 0.01 to 10 nM | – |
| COC(=O)[C@H](CCNC(=O)C(=O)Nc1ccc(C(=O)N2CCOCC2)cc1)NC(=O)c1ccc(Nc2nc(NC3(c4ccc(Cl)cc4)CC3)nc(OCC(F)(F)F)n2)cc1 [Compound 3128] | – | 0.01 to 10 nM | – |
| COC(=O)[C@H](CCNC(=O)C(=O)NC(C)C1CC1)NC(=O)c1ccc(Nc2nc(NC3(c4ccc(Cl)cc4)CC3)nc(OCC(F)(F)F)n2)cc1 (stereo partly drawn) [Compound 1417] | 0.01 to 10 nM | – | EC50 [2]: 0.16 nM |
| O=C(NCC[C@H](NC(=O)c1ccc(Nc2nc(NC3(c4ccc(Cl)cc4)CC3)nc(OCC(F)(F)F)n2)cc1)C(=O)O)C(=O)Nc1ccc(OCC(F)(F)F)cc1 [Compound 3226] | – | 0.01 to 10 nM | – |
